Our source for the T/C values is PubChem BioAssay AID328 (DTP/NCI, 2004).

“And” between values parts separate entries of the source, which are not always exact repeats. Equal values may be shown once. Inconclusive results and toxic doses are left out.

This assay deals with BDF1 mice, P388 leukemia ip, median survival T/C. As to the kind of experiment: NCI In Vivo Anticancer Drug Screen. Data for tumor model P388 Leukemia (intraperitoneal) in B6D2F1 (BDF1) mice. To be noted: endpoint: median survival time, higher = longer survival. A digest of the protocol: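 Compound-treated tumour-bearing mice were compared with vehicle-treated controls. Survival was recorded, and the value is the treated-group measurement divided by the control-group measurement (T/C).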

The mark [1] stands for this setting: dose: 25.0 mg/kg/injection, schedule: Q01DX009 (ip), vehicle: saline.
[2] abbreviates: dose: 25.0 mg/kg/injection, schedule: Q04DX003 (ip), vehicle: saline.
[3] abbreviates: dose: 50.0 mg/kg/injection, schedule: Q04DX003 (ip), vehicle: saline.
Where [4] appears, read: dose: 100.0 mg/kg/injection, schedule: Q04DX003 (ip), vehicle: saline.
The mark [5] stands for this setting: dose: 100.0 mg/kg/injection, schedule: Q04DX003 (ip), vehicle: saline with Tween-80.
Setting [6] is: dose: 200.0 mg/kg/injection, schedule: Q04DX003 (ip), vehicle: saline with Tween-80.
Where [7] appears, read: dose: 400.0 mg/kg/injection, schedule: Q04DX003 (ip), vehicle: saline with Tween-80.
[8] abbreviates: dose: 75.0 mg/kg/injection, schedule: Q01DX009 (ip), vehicle: Klucel (hydroxypropylcellulose) (HPC).
Where [9] appears, read: dose: 100.0 mg/kg/injection, schedule: Q04DX003 (ip), vehicle: Klucel (hydroxypropylcellulose) (HPC).
Where [10] appears, read: dose: 150.0 mg/kg/injection, schedule: Q01DX009 (ip), vehicle: Klucel (hydroxypropylcellulose) (HPC).
Setting [11] is: dose: 200.0 mg/kg/injection, schedule: Q04DX003 (ip), vehicle: Klucel (hydroxypropylcellulose) (HPC).
[12] abbreviates: dose: 400.0 mg/kg/injection, schedule: Q04DX003 (ip), vehicle: Klucel (hydroxypropylcellulose) (HPC).
Where [13] appears, read: dose: 100.0 mg/kg/injection, schedule: Q01DX009 (ip), vehicle: Klucel (hydroxypropylcellulose) (HPC).
[14] abbreviates: dose: 200.0 mg/kg/injection, schedule: Q01DX009 (ip), vehicle: Klucel (hydroxypropylcellulose) (HPC).
The mark [15] stands for this setting: dose: 75.0 mg/kg/injection, schedule: Q01DX009 (ip), vehicle: saline with Tween-80.
[16] abbreviates: dose: 150.0 mg/kg/injection, schedule: Q01DX009 (ip), vehicle: saline with Tween-80.

Take `Clc1ncn[nH]1`: the T/C is 120 % of control (dose: 100.0 mg/kg/injection, schedule: Q01DX001 (ip), vehicle: saline sonified); 112 % of control (dose: 200.0 mg/kg/injection, schedule: Q01DX001 (ip), vehicle: saline sonified); 120 % of control (dose: 400.0 mg/kg/injection, schedule: Q01DX001 (ip), vehicle: saline sonified).

Consider `CN(C)CCCN1c2ccccc2Sc2ccc(F)cc21`, for which the T/C runs as follows: (dose: 6.25 mg/kg/injection, schedule: Q01DX009 (ip), vehicle: saline) 104 % of control; (dose: 12.5 mg/kg/injection, schedule: Q01DX009 (ip), vehicle: saline) 109 % of control; under setting [1], 122 % of control; under setting [2], 104 % of control; under setting [3], 118 % of control.

Take `C[As](C)SCC1OC2OC(C)(C)OC2C2OC(C)(C)OC12` (stereo not given): the T/C (dose: 50.0 mg/kg/injection, schedule: Q01DX009 (ip), vehicle: saline with Tween-80) is 110 % of control and 123 % of control.

As to `[O-]/C(CCl)=N\[n+]1c2c(nc3ccccc31)-c1cccc3cccc-2c13`, the T/C is 105 % of control (dose: 12.5 mg/kg/injection, schedule: Q01DX001 (ip), vehicle: Klucel (hydroxypropylcellulose) (HPC)) and 102 % of control (dose: 25.0 mg/kg/injection, schedule: Q01DX001 (ip), vehicle: Klucel (hydroxypropylcellulose) (HPC)).

Consider `COc1cc(/C=N/NC(=O)C[n+]2ccccc2)cc(OC)c1`, for which the T/C is 104 % of control under setting [1]; 109 % of control under setting [2]; 100 % of control (dose: 50.0 mg/kg/injection, schedule: Q01DX009 (ip), vehicle: saline); 104 % of control under setting [3]; 86 % of control under setting [4].

On to `NC(=O)N(CCCl)N=O`, for which the T/C was 190 % of control (dose: 0.25 mg/kg/injection, schedule: Q01DX010 (ip), vehicle: saline); 209 % of control and 213 % of control (dose: 0.5 mg/kg/injection, schedule: Q01DX010 (ip), vehicle: saline); 290 % of control and 300 % of control (dose: 1.0 mg/kg/injection, schedule: Q01DX010 (ip), vehicle: saline); 272 % of control and 168 % of control (dose: 1.25 mg/kg/injection, schedule: Q01DX010 (ip), vehicle: saline); 277 % of control (dose: 2.0 mg/kg/injection, schedule: Q01DX010 (ip), vehicle: saline); 118 % of control and 209 % of control (dose: 2.5 mg/kg/injection, schedule: Q01DX010 (ip), vehicle: saline). Besides, the T/C (dose: 4.0 mg/kg/injection, schedule: Q01DX010 (ip), vehicle: saline) was 90 % of control.

Take `Cc1ccc(NC(=O)COc2ccc(Cl)cc2Cl)cc1Cl`: the T/C is 100 % of control under setting [5], 90 % of control under setting [6] and 90 % of control under setting [7].

As for `CCCOP(=O)(CCl)OCCC`, the T/C is 95 % of control under setting [4]; 100 % of control (dose: 200.0 mg/kg/injection, schedule: Q04DX003 (ip), vehicle: saline); 100 % of control (dose: 400.0 mg/kg/injection, schedule: Q04DX003 (ip), vehicle: saline).

For the compound `CC(C)(C)CC(Cl)Cl`, the T/C is 100 % of control under setting [8]; 100 % of control under setting [9]; 100 % of control under setting [10]; 100 % of control under setting [11]; 107 % of control under setting [12].

Turning to `CC(=O)NNC(=O)c1ccccc1`, the T/C by setting is: (dose: 12.0 mg/kg/injection, schedule: Q04DX003 (ip), vehicle: Klucel (hydroxypropylcellulose) (HPC)) 104 % of control; (dose: 25.0 mg/kg/injection, schedule: Q04DX003 (ip), vehicle: Klucel (hydroxypropylcellulose) (HPC)) 100 % of control; (dose: 50.0 mg/kg/injection, schedule: Q01DX009 (ip), vehicle: Klucel (hydroxypropylcellulose) (HPC)) 87 % of control; (dose: 50.0 mg/kg/injection, schedule: Q04DX003 (ip), vehicle: Klucel (hydroxypropylcellulose) (HPC)) 104 % of control; under setting [8], 105 % of control; (dose: 75.0 mg/kg/injection, schedule: Q04DX003 (ip), vehicle: Klucel (hydroxypropylcellulose) (HPC)) 100 % of control. Moreover, the T/C was 87 % of control under setting [13]; 90 % of control under setting [9]; 110 % of control under setting [10]; 91 % of control under setting [14]; 95 % of control and 100 % of control under setting [11]; 109 % of control and 118 % of control under setting [12].

Regarding `CC(=O)Nc1ccc(C=O)cc1[N+](=O)[O-]`, the T/C was 110 % of control under setting [13]; 100 % of control under setting [14]; 100 % of control (dose: 400.0 mg/kg/injection, schedule: Q01DX009 (ip), vehicle: Klucel (hydroxypropylcellulose) (HPC)).

As to `CCOC(=O)C/C(C)=N\NC(=O)c1ccncc1`, the T/C was 88 % of control under setting [15] and 102 % of control under setting [16].

Turning to `Cc1oc(-c2ccccc2)nc1C(=O)O`, the T/C under setting [5] was 106 % of control, the T/C under setting [6] was 100 % of control and the T/C under setting [7] was 102 % of control.

For the compound `O=S(=O)(NC1CCCCC1)c1ccccc1`, the T/C under setting [15] is 90 % of control; the T/C under setting [5] is 95 % of control; the T/C under setting [16] was 90 % of control; the T/C (dose: 300.0 mg/kg/injection, schedule: Q01DX009 (ip), vehicle: saline with Tween-80) was 95 % of control; the T/C under setting [7] was 100 % of control.

`Cc1ccc(C(=O)CCCCCCCCC(=O)c2ccc(C)cc2)cc1`: the T/C by setting is: under setting [5], 100 % of control; under setting [6], 90 % of control; under setting [7], 100 % of control.

Consider `C[Si](C)(C)OC/C=C\CO[Si](C)(C)C`, for which the T/C runs as follows: (dose: 100.0 mg/kg/injection, schedule: Q01DX009 (ip), vehicle: saline) 100 % of control; (dose: 200.0 mg/kg/injection, schedule: Q01DX009 (ip), vehicle: saline) 108 % of control; (dose: 400.0 mg/kg/injection, schedule: Q01DX009 (ip), vehicle: saline) 108 % of control.

As to `Cc1ccc(SS(=O)(=O)c2ccc(C)cc2)cc1`, the T/C is, setting by setting: (dose: 25.0 mg/kg/injection, schedule: Q01DX009 (ip), vehicle: saline sonified) 108 % of control; (dose: 50.0 mg/kg/injection, schedule: Q01DX009 (ip), vehicle: saline sonified) 117 % of control; (dose: 100.0 mg/kg/injection, schedule: Q01DX009 (ip), vehicle: saline sonified) 117 % of control.

As for `CCc1ccc(NC(=O)c2ccccc2Cl)cc1`, the T/C by setting is: under setting [5], 100 % of control; under setting [6], 91 % of control; under setting [7], 91 % of control.

`CC(=O)OCC(=O)[C@@]1(O)CC[C@H]2[C@@H]3C=C(C)C4=CC(=O)CC[C@]4(C)[C@H]3[C@@H](O)C[C@@]21C`: the T/C reads like this: (dose: 100.0 mg/kg/injection, schedule: Q01DX009 (ip), vehicle: saline with Tween-80) 108 % of control; under setting [5], 95 % of control; (dose: 200.0 mg/kg/injection, schedule: Q01DX009 (ip), vehicle: saline with Tween-80) 91 % of control; under setting [6], 95 % of control; (dose: 400.0 mg/kg/injection, schedule: Q01DX009 (ip), vehicle: saline with Tween-80) 108 % of control; under setting [7], 95 % of control.

As to `N#CCOC(=O)C1(NC(=O)c2ccccc2)CC1c1ccccc1` (stereo not given), the T/C was 95 % of control (dose: 25.0 mg/kg/injection, schedule: Q01DX005 (ip), vehicle: saline with Tween-80); 90 % of control (dose: 50.0 mg/kg/injection, schedule: Q01DX005 (ip), vehicle: saline with Tween-80); 92 % of control (dose: 100.0 mg/kg/injection, schedule: Q01DX005 (ip), vehicle: saline with Tween-80).
